Assays:
[1] = cited from earlier work
[2] = Solubility / dissociation of the complexes in water; settings: approximately 0.1 g in 10 Ml deionized water, after standing overnight
Experimental: Zinc oxide and lactic acid were mixed in an ethanol solution (reagent grade ethyl alcohol denatured with methanol and isopropyl alcohol) containing approximately 10% water at room temperature with continuous stirring using a magnetic stirrer. […] The crystals were isolated by filtering.
(§1) Specifically, approximately 0.1 g zinc oxide/lactic acid was dissolved in 10 Ml of deionized water via vortexing. […] Specifically, approximately 0.1 g zinc oxide was mixed in 10 Ml sodium lactate solution (containing approximately 0.88 g sodium lactate in 10 Ml deionized water). The mixture was vortexed to dissolve the particles such that no large visible particles remained.

[3] = format: physicochemical
Experimental: as §1

[4] = Experimental: To further test solubility of the zinc oxide/lactic acid complexes in a solution comprising lactic acid and water, increasing amounts of lactic acid were added to 0.725 g zinc oxide/lactic acid complexes. Specifically, the following amounts of 88% lactic acid were added to the zinc oxide/lactic acid complexes in 10 Ml deionized water: 0.0273 g, 0.0262 g, 0.0345 g, 0.0575 g, 0.0757 g, 0.1166 g, 0.1562 g, 0.1389 g, 0.1486 g, and 0.2810 g. Approximately 0.3 g zinc oxide/lactic acid complexes were also mixed with 0.0670 g or 0.2517 g 88% lactic acid.

Compound	solubility in neutral aqueous solutions [1]	Ph of the mixture in water [2]	solubility in sodium lactate [3]	Ph of the mixture in sodium lactate solution ([3]; approximately 0.1 g in 10 Ml sodium lactate solution, overnight)	solubility in lactic acid and water (appearance of the mixture) [4]
[O]=[Zn] [Zinc oxide, zinc oxide]	nearly insoluble	–	–	–	–
CC1[O][Zn]2([OH])([O]C1=O)[O]C(=O)C(C)[O]2 (centres unmarked) [zinc oxide/lactic acid complexes]	–	approximately 6	soluble in sodium lactate	approximately 6	milky mixture that settles upon standing

Reference: patent US11725096B2, “Zinc oxide complexes” (MARY KAY INC., priority 2010, dated 2023)
